The values that follow come from patent US20120065173A1 (priority 2006, published 2012).

This assay concerns the target T1, recombinant human GR (Homo sapiens, UniProt P04150).
T1 construct: purchased Panvera/Invitrogen P2812 (kit P2893)
T1 sequence (P04150 1-777): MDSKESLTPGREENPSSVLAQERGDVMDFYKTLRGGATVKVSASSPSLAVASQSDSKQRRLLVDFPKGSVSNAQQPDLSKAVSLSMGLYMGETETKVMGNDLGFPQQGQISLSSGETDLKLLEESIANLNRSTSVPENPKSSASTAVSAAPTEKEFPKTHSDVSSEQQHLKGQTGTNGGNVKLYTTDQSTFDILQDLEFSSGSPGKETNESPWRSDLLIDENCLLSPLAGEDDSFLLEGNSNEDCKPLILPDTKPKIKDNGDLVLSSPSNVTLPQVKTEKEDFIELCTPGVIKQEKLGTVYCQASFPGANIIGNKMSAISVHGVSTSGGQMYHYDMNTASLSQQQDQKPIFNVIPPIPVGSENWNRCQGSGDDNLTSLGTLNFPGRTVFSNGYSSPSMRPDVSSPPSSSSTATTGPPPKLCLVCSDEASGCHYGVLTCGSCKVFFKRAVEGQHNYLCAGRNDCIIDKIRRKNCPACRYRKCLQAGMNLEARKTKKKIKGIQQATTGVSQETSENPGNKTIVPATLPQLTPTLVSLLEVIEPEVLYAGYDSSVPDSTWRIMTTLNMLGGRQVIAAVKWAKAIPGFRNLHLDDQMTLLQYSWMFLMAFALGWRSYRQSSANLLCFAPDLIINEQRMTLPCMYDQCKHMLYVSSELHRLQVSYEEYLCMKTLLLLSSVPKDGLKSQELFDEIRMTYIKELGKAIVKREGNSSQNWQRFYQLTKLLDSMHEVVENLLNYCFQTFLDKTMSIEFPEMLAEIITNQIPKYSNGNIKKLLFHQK
Nature of the assay: Human Glucocorticoid Receptor (GR) Assay, fluorescence polarization (GRhuFL_FP_v2). As to conditions: GS Red tracer, 2 hours at room temperature, 100% control 10 μM Dexamethasone. It counts as binding. As to the method:
Human Glucocorticoid Receptor (GR) Assay
The assay is based on a commercial kit from Panvera/Invitrogen (Part number P2893). The assay technology is fluorescence polarization. […] The GR and Stabilizing Peptide reagents are stored at −70° C. while the GS Red is stored at −20° C. Also included in the kit are 1M DTT (Panvera, Part number P2325, stored at −20° C.) and GR Screening buffer 10× (Panvera, Part number P2814, stored at −70° C. initially but once thawed stored at room temperature). Avoid repeated freeze/thaws for all reagents. The GR Screening buffer 10× comprises 100 mM potassium phosphate, 200 mM sodium molybdate, 1 mM EDTA and 20% DMSO.
0% control was 100% DMSO and 100% control was 10 μM Dexamethasone. Background solution (8 μL; assay buffer 10×, Stabilizing Peptide, DTT and ice cold MQ water) was added to the background wells. GS Red solution (7 μL; assay buffer 10×, Stabilizing Peptide, DTT, GS Red and ice cold water) was added to all wells except background wells. GR solution (7 μL; assay buffer 10×, Stabilizing Peptide, DTT, GR and ice cold water) was added to all wells. The plate was sealed and incubated in a dark at room temperature for 2 hours.
On the technique in general: Polarisation of emitted light reports the rotation of a fluorescent probe.
For orientation: IC50 means the midpoint of a concentration-inhibition curve. For the compound `O=S(=O)(NC[C@@H](Oc1ccc2c(cnn2-c2ccc(F)cc2)c1)c1ccccc1)C1CC1` [Example 41, N-[(2S)-2-[1-(4-fluorophenyl)indazol-5-yl]oxy-2-phenyl-ethyl]cyclopropanesulfonamide], the IC50 is 250 nM.
The figure for `C[C@H](NS(=O)(=O)C1CC1)[C@H](Oc1ccc2c(cnn2-c2ccc(F)cc2)c1)c1cnc2ccccc2c1` [Example 42, N-((1R,2S)-1-(1-(4-fluorophenyl)-1H-indazol-5-yloxy)-1-(quinolin-3-yl)propan-2-yl)cyclopropanesulfonamide] is 3.6 nM.
The figure for `C[C@H](NS(=O)(=O)C1CC1)[C@H](Oc1ccc2c(cnn2-c2ccc(F)cc2)c1)c1ccc2c(c1)OCCO2` [Example 43, N-((1R,2S)-1-(2,3-dihydrobenzo[b][1,4]dioxin-6-yl)-1-(1-(4-fluorophenyl)-1H-indazol-5-yloxy)propan-2-yl)cyclopropanesulfonamide] is 2.3 nM.
